According to patent publication US11427548B2 (Arvinas Operations, Inc., priority 2015, dated 2022):
Read-outs that look alike come from different tables or passages of the source.

Biological target: T1, Androgen Receptor (Homo sapiens, UniProt P10275)
T1 construct: endogenous in cells; host or cells: VCaP cells
T1 sequence (P10275 1-920): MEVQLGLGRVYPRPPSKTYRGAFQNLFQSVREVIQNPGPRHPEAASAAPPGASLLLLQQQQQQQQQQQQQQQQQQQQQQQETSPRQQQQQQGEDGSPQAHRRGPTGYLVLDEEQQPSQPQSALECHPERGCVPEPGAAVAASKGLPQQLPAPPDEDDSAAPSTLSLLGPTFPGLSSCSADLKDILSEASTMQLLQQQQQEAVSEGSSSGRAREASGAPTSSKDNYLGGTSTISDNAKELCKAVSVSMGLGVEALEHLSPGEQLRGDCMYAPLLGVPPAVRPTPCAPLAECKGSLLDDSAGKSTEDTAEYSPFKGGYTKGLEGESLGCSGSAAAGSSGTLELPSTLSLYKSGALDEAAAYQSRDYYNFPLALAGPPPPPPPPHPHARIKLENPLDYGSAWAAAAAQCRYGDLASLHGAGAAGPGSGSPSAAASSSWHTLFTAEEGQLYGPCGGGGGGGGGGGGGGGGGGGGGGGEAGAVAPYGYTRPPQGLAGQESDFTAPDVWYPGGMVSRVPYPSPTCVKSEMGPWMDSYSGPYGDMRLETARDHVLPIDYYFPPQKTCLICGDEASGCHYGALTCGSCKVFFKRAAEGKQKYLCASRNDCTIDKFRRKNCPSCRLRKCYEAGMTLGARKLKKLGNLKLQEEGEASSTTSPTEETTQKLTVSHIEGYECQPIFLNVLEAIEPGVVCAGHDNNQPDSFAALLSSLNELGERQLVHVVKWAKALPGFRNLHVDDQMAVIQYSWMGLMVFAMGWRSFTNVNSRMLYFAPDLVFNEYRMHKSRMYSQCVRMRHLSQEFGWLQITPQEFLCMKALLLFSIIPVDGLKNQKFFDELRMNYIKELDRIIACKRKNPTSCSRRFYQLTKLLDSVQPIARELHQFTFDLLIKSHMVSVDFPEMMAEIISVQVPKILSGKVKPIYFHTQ
Test: Androgen Receptor ELISA assay (PathScan AR ELISA) in VCaP cells: AR degradation, Dmax and DC50
Type: cell-based
Procedure, shortened: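 After 24 h exposure of VCaP cells (charcoal-stripped serum, 0.1 nM R1881 agonist, 0.1% DMSO) to seven half-log compound concentrations, residual AR in lysates was measured by PathScan ELISA (TMB absorbance, 450 nm). Cells were plated at 30,000/well and grown at least 3 days beforehand.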

[1] = VCaP cells; Table 36; read-out: VCaP DC50
[2] = VCaP, VCaP cells; Table 36; read-out: VCaP Dmax (%)
[3] = VCaP cells; Table 35; read-out: VCaP DC50
[4] = VCaP, VCaP cells; Table 35; read-out: VCaP Dmax (%)
[5] = read-out: VCaP DC50; VCaP cells; Table 34

What does the source list for `Cc1ncsc1-c1ccc(CNC(=O)[C@@H]2C[C@@H](O)CN2C(=O)[C@@H](NC(=O)COCCN2C[C@H]3C[C@@H]2CN3c2ccc(C(=O)N[C@H]3C(C)(C)[C@H](Oc4ccc(C#N)c(Cl)c4)C3(C)C)cn2)C(C)(C)C)cc1` [Example 669, N-((1r,3R)-3-(3-chloro-4-cyanophenoxy)-2,2,4,4-tetramethylcyclobutyl)-6-((1R,4R)-5-(2-(2-(((S)-1-((2S,4R)-4-hydroxy-2-((4-(4-methylthiazol-5-yl)benzyl)carbamoyl)pyrrolidin-1-yl)-3,3-dimethyl-1-oxobutan-2-yl)amino)-2-oxoethoxy)ethyl)-2,5-diazabicyclo[2.2.1]hept-an-2-yl)nicotinamide]?
DC50 [1]: < 50 nM; Dmax [2]: 51 to 70%

Which results are given for `Cc1ncoc1-c1ccc([C@H](C)NC(=O)[C@@H]2C[C@@H](O)CN2C(=O)[C@@H](NC(=O)COCCCCNc2ccc(C(=O)N[C@H]3C(C)(C)[C@H](Oc4ccc(C#N)c(Cl)c4)C3(C)C)cc2)C(C)(C)C)cc1` [Example 411]?
DC50 (VCaP cells; Table 34; read-out: VCaP DC50): < 50 nM; Dmax (VCaP, VCaP cells; Table 34; read-out: VCaP Dmax (%)): > 71%

For `CC(C)(C)[C@H](NC(=O)COCCCCCNc1ccc(C(=O)N[C@H]2C(C)(C)[C@H](Oc3ccc(C#N)c(Cl)c3)C2(C)C)cc1)C(=O)N1C[C@H](O)C[C@H]1C(=O)NCc1ccc(-n2cncn2)cc1` [Example 530], which DC50 [3] is on record?
Its DC50 is less than 50 nM.

And the Dmax [4]?
The Dmax was greater than 71%.

Which results are given for `Cc1ncsc1-c1ccc([C@H](C)NC(=O)[C@@H]2C[C@@H](O)CN2C(=O)[C@@H](C(C)C)n2cc(OCCCOCCCn3cnc(-c4ccc(N5C(=S)N(c6ccc(C#N)c(C(F)(F)F)c6)C(=O)C5(C)C)cc4)c3)cn2)cc1` [Example 647, (2S,4R)-1-((R)-2-(4-(3-(3-(4-(4-(3-(4-cyano-3-(trifluoromethyl)phenyl)-5,5-dimethyl-4-oxo-2-thhioxoimidazolidin-1-yl)phenyl)-1H-imidazol-1-yl)propoxy)propoxy)-1H-pyrazol-1-yl)-3-methylbutanoyl)-4-hydroxy-N-((S)-1-(4-(4-methylthiazol-5-yl)phenyl)ethyl)pyrrolidine-2-carboxamide]?
Dmax (VCaP, read-out: VCaP Dmax (%)): < 25%; DC50 (read-out: VCaP DC50; VCaP cells; Table 36): > 501 nM

What does the source list for `Cc1ncsc1-c1ccc(CNC(=O)[C@@H]2C[C@@H](O)CN2C(=O)[C@@H](NC(=O)COCCOc2ccc(-c3c(F)cc(C(=O)N[C@H]4C(C)(C)[C@H](Oc5ccc(C#N)c(Cl)c5)C4(C)C)cc3F)cc2)C(C)(C)C)cc1` [Example 543]?
DC50 [3]: < 50 nM; Dmax [4]: > 71%

`Cc1ncsc1-c1ccc(CNC(=O)[C@@H]2C[C@@H](O)CN2C(=O)[C@@H](NC(=O)COCCCOCCCCOc2ccc(N3C(=S)N(c4cnc(C#N)c(Cl)c4)C(=O)C3(C)C)cc2)C(C)(C)C)cc1` [Example 37, (2S,4R)-1-[(2S)-2-{2-[3-(4-{4-[3-(5-chloro-6-cyanopyridin-3-yl)-5,5-dimethyl-4-oxo-2-sulfanylideneimidazolidin-1-yl]phenoxy}butoxy)propoxy]acetamido}-3,3-dimethylbutanoyl]-4-hydroxy-N-{[4-(4-methyl-1,3-thiazol-5-yl)phenyl]methyl}pyrrolidine-2-carboxamide] was tested. Which Dmax (VCaP, highest percentage of Androgen Receptor degradation observed, VCaP cells; read-out: VCaP Dmax (%)) did it give?
Its Dmax is greater than 71%.

What about the DC50 (concentration that caused 50% Androgen Receptor degradation, VCaP cells; read-out: VCaP DC50) of the same molecule?
The DC50 was less than 50 nM.

Which DC50 [1] does the source give for `Cc1ncsc1-c1ccc([C@H](CO)NC(=O)[C@@H]2C[C@@H](O)CN2C(=O)[C@@H](NC(=O)CN2CCN(CCCCc3ccc(C(=O)N[C@H]4C(C)(C)[C@H](Oc5ccc(C#N)c(Cl)c5)C4(C)C)cc3)CC2)C(C)(C)C)cc1` [Example 859, (2S,4R)-1-((S)-2-(2-(4-(4-(4-(((1r,3r)-3-(3-chloro-4-cyanophenoxy)-2,2,4,4-tetramethylcyclobutyl)carbamoyl)phenyl)butyl)piperazin-1-yl)acetamido)-3,3-dimethylbutanoyl)-4-hydroxy-N-((R)-2-hydroxy-1-(4-(4-methylthiazol-5-yl)phenyl)ethyl) pyrrolidine-2-carboxamide] here?
The DC50 was less than 50 nM.

What about the Dmax [2] of the same molecule?
Its Dmax is greater than 71%.

Which results are given for `Cc1ncsc1-c1ccc(CNC(=O)[C@@H]2C[C@@H](O)CN2C(=O)[C@@H](NC(=O)CNCCCCOCCCOc2ccc(N3C(=S)N(c4ccc(C#N)c(C(F)(F)F)c4)C(=O)C3(C)C)cc2)C(C)(C)C)cc1` [Example 316]?
Dmax (VCaP, read-out: VCaP Dmax (%)): 26 to 50%; DC50 [5]: 51 to 500 nM

For `CC(C)(C)[C@H](NC(=O)COCCCCOc1ccc(-c2ccc(N3C(=S)N(c4cnc(C#N)c(C(F)(F)F)c4)C(=O)C3(C)C)cc2)cc1)C(=O)N1C[C@H](O)C[C@H]1C(=O)NCc1ccc(-c2cnco2)cc1` [Example 190, (2S,4R)-1-[(2S)-2-(2-{4-[4-(4-{3-[6-cyano-5-(trifluoromethyl)pyridin-3-yl]-5,5-dimethyl-4-oxo-2-sulfanylideneimidazolidin-1-yl}phenyl)phenoxy]butoxy}acetamido)-3,3-dimethylbutanoyl]-4-hydroxy-N-{[4-(1,3-oxazol-5-yl)phenyl]methyl}pyrrolidine-2-carboxamide], which DC50 (VCaP cells; concentration that caused 50% Androgen Receptor degradation; read-out: VCaP DC50) is on record?
Its DC50 is less than 50 nM.

What about the Dmax (VCaP, VCaP cells; highest percentage of Androgen Receptor degradation; read-out: VCaP Dmax (%)) of the same molecule?
The Dmax was greater than 71%.

How did the DC50 [3] turn out when `Cc1ncsc1-c1ccc([C@H](C)NC(=O)[C@@H]2C[C@@H](O)CN2C(=O)[C@H](NC(=O)COCCCCCNc2ccc(C(=O)N[C@H]3C(C)(C)[C@H](Oc4ccc(C#N)c(Cl)c4)C3(C)C)cc2)C(C)(C)C)cc1` [Example 457] was run?
Its DC50 is greater than 501 nM.

And the Dmax [4]?
The Dmax was less than 25%.

With `Cc1ncsc1-c1ccc(CNC(=O)[C@@H]2C[C@@H](O)CN2C(=O)[C@@H](NC(=O)CCOCCOc2ccc(-c3ccc(N4C(=S)N(c5ccc(C#N)c(C(F)(F)F)c5)C(=O)C4(C)C)cc3)nc2)C(C)(C)C)cc1` [Example 87] as the molecule, how does the Dmax (VCaP, read-out: VCaP Dmax (%)) read?
Its Dmax is 26 to 50%.

And the DC50 (read-out: VCaP DC50; concentration that caused 50% Androgen Receptor degradation, VCaP cells (Table 32))?
The DC50 was less than 50 nM.

With `Cc1ncsc1-c1ccc([C@H](C)NC(=O)[C@@H]2C[C@@H](O)CN2C(=O)[C@@H](NC(=O)CN2CCC(O[C@H]3C[C@H](Nc4ccc(C(=O)N[C@H]5C(C)(C)[C@H](Oc6ccc(C#N)c(Cl)c6)C5(C)C)cc4F)C3)CC2)C(C)(C)C)cc1` [Example 706, (2S,4R)-1-((S)-2-(2-(4-((1R,3S)-3-((4-(((1r,3R)-3-(3-chloro-4-cyanophenoxy)-2,2,4,4-tetramethylcyclobutyl)carbamoyl)-2-fluorophenyl)amino)cyclobutoxy)piperidin-1-yl)acetamido)-3,3-dimethylbutanoyl)-4-hydroxy-N-((S)-1-(4-(4-methylthiazol-5-yl)phenyl)ethyl)pyrrolidine-2-carboxamide] as the molecule, how does the DC50 [1] read?
Its DC50 is less than 50 nM.

What about the Dmax (VCaP, read-out: VCaP Dmax (%), VCaP cells; Table 36) of the same molecule?
The Dmax was greater than 71%.

For `Cc1ncsc1-c1ccc(CNC(=O)[C@@H]2C[C@@H](O)CN2C(=O)[C@@H](NC(=O)COCCCCOc2ccc(-c3ccc(N4C(=S)N(c5ccc(C#N)c(C(F)(F)F)c5)C(=O)C4(C)C)cc3)c(O)c2)C(C)(C)C)cc1` [Example 403], which Dmax (VCaP, read-out: VCaP Dmax (%)) is on record?
Its Dmax is 51 to 70%.

And the DC50 [5]?
The DC50 was less than 50 nM.

With `Cc1ncsc1-c1ccc(CNC(=O)[C@@H]2C[C@@H](O)CN2C(=O)[C@@H](NC(=O)CN(C)CCCCOCCCOc2ccc(N3C(=S)N(c4ccc(C#N)c(C(F)(F)F)c4)C(=O)C3(C)C)cc2)C(C)(C)C)cc1` [Example 317] as the molecule, how does the Dmax (VCaP, read-out: VCaP Dmax (%)) read?
The Dmax was 26 to 50%.

And the DC50 [5]?
Its DC50 is 51 to 500 nM.

With `Cc1ncsc1-c1ccc([C@H](C)NC(=O)[C@@H]2C[C@@H](O)CN2C(=O)[C@@H](NC(=O)CCCC/C(CCCc2ccc(C(=O)N[C@H]3C(C)(C)[C@H](Oc4ccc(C#N)c(Cl)c4)C3(C)C)nc2)=N\O)C(C)(C)C)cc1` [Example 693, N-((1r,3r)-3-(3-chloro-4-cyanophenoxy)-2,2,4,4-tetramethylcyclobutyl)-5-((E)-9-(((S)-1-((2S,4R)-4-hydroxy-2-(((S)-1-(4-(4-methylthiazol-5-yl)phenyl)ethyl)carbam-oyl)pyrrolidin-1-yl)-3,3-dimethyl-1-oxobutan-2-yl)amino)-4-(hydroxyimino)-9-oxononyl)picolinamide] as the molecule, how does the DC50 [1] read?
The DC50 was less than 50 nM.

What about the Dmax [2] of the same molecule?
Its Dmax is 26 to 50%.
